The record followed here is PubChem BioAssay (NCI).

Some test systems named below: RPMI-8226 leukemia; SK-MEL-28 melanoma; MDA-MB-231 breast; CCRF-CEM leukemia; EKVX NSCLC; T-47D breast; A549 NSCLC; SF-539 CNS; ACHN renal; TK-10 renal.
Common to all, as to assay: NCI tumour cell line growth inhibition, 48 h

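Results reflect a 48-hour exposure of cells in 96-well plates to compound at five concentrations. GI50 is the concentration that inhibits growth by half. TGI is the concentration that stops growth completely.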

On to `CN1CCN(C(=O)c2cc(-c3ccc4ncnc(N5CCc6cc(F)c(Cl)cc65)c4c3)cnc2N)CC1`, for which the GI50 was 0.124 µM in the assay with RPMI-8226 leukemia; 0.24 µM with SK-MEL-28 melanoma; 0.444 µM in the assay on MDA-MB-231 breast; 0.266 µM with CCRF-CEM leukemia; 0.232 µM in the assay on EKVX NSCLC; 0.0651 µM with T-47D breast. Moreover, the GI50 with A549 NSCLC is 0.194 µM; in the assay on SF-539 CNS, 0.264 µM; in the assay with ACHN renal, 0.27 µM; with TK-10 renal it was 0.178 µM. Moreover, the TGI was 0.557 µM in the assay with RPMI-8226 leukemia; 3.61 µM with SK-MEL-28 melanoma; 3.12 µM in the assay on MDA-MB-231 breast; 4.92 µM with CCRF-CEM leukemia; 1.55 µM in the assay with EKVX NSCLC; 1.84 µM in the assay on T-47D breast. Further, the TGI was 1.8 µM with A549 NSCLC, 1.44 µM in the assay on SF-539 CNS, 5.78 µM in the assay with ACHN renal and 1.45 µM in the assay with TK-10 renal.

Regarding `O=C(O)c1ccc(C(=O)c2ccccc2)c(C(=O)O)c1`, the TGI in the assay with RPMI-8226 leukemia, in the assay on SK-MEL-28 melanoma, with MDA-MB-231 breast, in the assay on CCRF-CEM leukemia, in the assay with EKVX NSCLC and in the assay on T-47D breast was above 100 µM in each case. The TGI in the assay on A549 NSCLC, with SF-539 CNS, with ACHN renal and with TK-10 renal was above 100 µM in each case.

Turning to `CCOc1ccccc1C(=O)N1CCN(c2cc(Cl)cc(Cl)c2)CC1`, the GI50 in the assay with RPMI-8226 leukemia was 0.0369 µM; in the assay with SK-MEL-28 melanoma, 3.55 µM; with MDA-MB-231 breast, 0.0444 µM; with CCRF-CEM leukemia, 0.0357 µM; with EKVX NSCLC it was 0.0587 µM; in the assay with T-47D breast it was 0.393 µM. Besides, the GI50 with A549 NSCLC was 0.0429 µM; in the assay on SF-539 CNS, 0.0252 µM; with ACHN renal, 0.051 µM; in the assay with TK-10 renal, 9.16 µM. In addition, the TGI stood at 5.32 µM in the assay on RPMI-8226 leukemia; 22.2 µM in the assay on SK-MEL-28 melanoma; 12.3 µM in the assay on MDA-MB-231 breast; 33.5 µM with CCRF-CEM leukemia; 17.3 µM in the assay with EKVX NSCLC; 29.9 µM in the assay on T-47D breast. Besides, the TGI in the assay on A549 NSCLC amounted to 15.8 µM; in the assay on SF-539 CNS, 0.412 µM; with ACHN renal, 14.6 µM; in the assay on TK-10 renal, 24 µM.

Consider `COc1ccc2cc1Oc1ccc(cc1)C[C@H]1c3c(cc4c(c3Oc3cc5c(cc3OC)CCN(C)[C@@H]5C2)OCO4)CCN1C`, for which the GI50 is 1.56 µM in the assay with RPMI-8226 leukemia; 0.911 µM in the assay with SK-MEL-28 melanoma; 1.1 µM with MDA-MB-231 breast; 1.53 µM in the assay on CCRF-CEM leukemia; 8.47 µM with EKVX NSCLC; 0.988 µM with T-47D breast. For the same compound, the GI50 is 2.03 µM in the assay on A549 NSCLC, 0.826 µM in the assay on SF-539 CNS, 4.59 µM with ACHN renal and 5.87 µM with TK-10 renal. In addition, the TGI with RPMI-8226 leukemia is 8.7 µM; with SK-MEL-28 melanoma, 1.86 µM; with MDA-MB-231 breast it was 2.87 µM; with CCRF-CEM leukemia it was 7.77 µM; with EKVX NSCLC, 18 µM; in the assay with T-47D breast, 2.05 µM. The TGI in the assay on A549 NSCLC stood at 7.89 µM; in the assay on SF-539 CNS it was 1.63 µM; in the assay on ACHN renal, 10.6 µM; in the assay on TK-10 renal, 12.2 µM.

With `C[C@@H]1CN(Cc2ccc(F)cc2)[C@@H](C)CN1C(=O)c1cc2c(C(=O)C(=O)N(C)C)cn(C)c2cc1Cl`, the GI50 with RPMI-8226 leukemia is 16.7 µM; with SK-MEL-28 melanoma it was 13 µM; in the assay with MDA-MB-231 breast it was 14.9 µM; in the assay on CCRF-CEM leukemia, 18.5 µM; in the assay with EKVX NSCLC, 20.7 µM; in the assay on T-47D breast it was 5.97 µM. Further, the GI50 is 24 µM in the assay on A549 NSCLC, 14.9 µM in the assay on SF-539 CNS, 16.6 µM in the assay with ACHN renal and 30.3 µM in the assay on TK-10 renal. The TGI with RPMI-8226 leukemia turned out to be 51.9 µM; in the assay with SK-MEL-28 melanoma, 35.2 µM; with MDA-MB-231 breast, 32.7 µM; in the assay with CCRF-CEM leukemia it was 50.2 µM; with EKVX NSCLC, 89.8 µM; with T-47D breast, 65.6 µM. The TGI in the assay on A549 NSCLC was above 92.4 µM; with SF-539 CNS it was 29.7 µM; in the assay with ACHN renal, above 54.6 µM; with TK-10 renal it was above 89.7 µM.

With `COc1ccc(-c2[nH]c3ccccc3c2-c2ccc(OC)cc2)cc1`, the GI50 with RPMI-8226 leukemia was 3.27 µM; with SK-MEL-28 melanoma, 8.6 µM; with MDA-MB-231 breast, 4.69 µM; in the assay with CCRF-CEM leukemia, 2.85 µM; in the assay on EKVX NSCLC, 5.05 µM; with T-47D breast, 3.28 µM. Further, the GI50 with A549 NSCLC was 7.14 µM; with SF-539 CNS it was 3.05 µM; in the assay with ACHN renal, 11.9 µM; in the assay on TK-10 renal, 12.6 µM. Besides, the TGI with RPMI-8226 leukemia was 69.5 µM; with SK-MEL-28 melanoma it was 31.5 µM; with MDA-MB-231 breast it was 23.5 µM; in the assay on CCRF-CEM leukemia, above 100 µM; in the assay with EKVX NSCLC, 42.9 µM; in the assay on T-47D breast it was 20.6 µM. Besides, the TGI was found to be 30.3 µM with A549 NSCLC, 10.4 µM with SF-539 CNS, 28.3 µM in the assay on ACHN renal and 41 µM with TK-10 renal.

As for `CCCN(CCS(C)(=O)=O)Cc1ccc(-c2ccc3ncnc(Nc4ccc(OCc5cccc(F)c5)c(Cl)c4)c3c2)o1`, the GI50 with RPMI-8226 leukemia was above 20.8 µM; in the assay with SK-MEL-28 melanoma, above 25 µM; with MDA-MB-231 breast, above 25 µM; with CCRF-CEM leukemia, 7.39 µM; with EKVX NSCLC it was 0.195 µM; in the assay on T-47D breast it was 1.82 µM. For the same compound, the GI50 is above 25 µM with A549 NSCLC, above 25 µM in the assay on SF-539 CNS, 1.23 µM in the assay with ACHN renal and 0.175 µM with TK-10 renal. Further, the TGI is above 25 µM with RPMI-8226 leukemia; above 25 µM with SK-MEL-28 melanoma; above 25 µM in the assay with MDA-MB-231 breast; above 25 µM in the assay with CCRF-CEM leukemia; above 25 µM with EKVX NSCLC; 24.7 µM in the assay with T-47D breast. Moreover, the TGI in the assay on A549 NSCLC, in the assay on SF-539 CNS, in the assay on ACHN renal and in the assay on TK-10 renal was above 25 µM in each case.

`N#Cc1c(N2CCOCC2)nc(=S)[nH]c1-c1ccco1`: the GI50 is 1.58 µM in the assay with RPMI-8226 leukemia; 8.45 µM in the assay on SK-MEL-28 melanoma; 4.63 µM with MDA-MB-231 breast; 5.52 µM in the assay on CCRF-CEM leukemia; 5.99 µM in the assay on EKVX NSCLC; 1.3 µM with T-47D breast. Besides, the GI50 with A549 NSCLC is 14.9 µM; in the assay with SF-539 CNS it was 6.34 µM; in the assay on ACHN renal, 5.75 µM; in the assay with TK-10 renal it was 5.35 µM. Further, the TGI in the assay on RPMI-8226 leukemia was 16.4 µM; in the assay on SK-MEL-28 melanoma, above 100 µM; with MDA-MB-231 breast it was above 100 µM; in the assay on CCRF-CEM leukemia, 52 µM; in the assay on EKVX NSCLC, 78.7 µM; with T-47D breast it was 5.91 µM. The TGI is above 100 µM in the assay with A549 NSCLC, 69.9 µM with SF-539 CNS, above 100 µM in the assay with ACHN renal and 39.7 µM in the assay with TK-10 renal.
